# Results: patent publication US20110091875A1, “THREE-COMPONENT GENE EXPRESSION REPORTING SYSTEM FOR MAMMALIAN CELLS AND APPLICATIONS OF THE SAME” (National Chung Cheng University, priority 2009, published 2011)
# Assays:
# Assay type in all cases: cell-based, human
# Trip10 promoter [1] = experiment: Reactivation of inactivated Trip10 promoter by 5-aza-2′-deoxycytidine and 17β-estradiol (EGFP in SC6 cells); conditions: me_Trip10 DNA transfected SC6 cells
# Description: The obtained photographs were analyzed via an image analyzing software Scion Image. Briefly, the photographs were divided into several regions by the Scion Image software, in which the EGFP signal in a region visually observed as a black region was defined as 0, and the EGFP signal in a region that was visually observed to have the strongest fluorescence was defined as 255. Thereafter, the EGFP intensity was obtained by summing up the EGFP signals in all the regions, followed by dividing by the total area of said regions. […] The transfection-treated SC6 cells, which were harvested two days after the third time of transfection according to the procedures set forth in the section, entitled “2. […] From the second time of medium change (Day 4), the screening medium was further supplemented with 10 ng/mL 17β-estradiol. Expression of EGFP in the SC6 cells was observed using an inverted fluorescence microscope prior to making the medium change, and photographs were recorded using a digital camera connected to the inverted fluorescence microscope.
# SC6 cells = experiment: Growth of SC6 cells in medium with 5-aza-2′-deoxycytidine (cytotoxicity); conditions: screening medium with 25 μM 5-aza-2′-deoxycytidine
# Description: Transfection of SC6 cells with me_Trip10 DNA,” of the above Example 4, were plated into each well of 6-well plates (1×10^4 cells/2 mL screening medium/well), followed by cultivation overnight in an incubator (37° C., 95% O2/5% CO2) to permit cell attachment. 10 mM 5-aza-2′-deoxycytidine (dissolved in DMSO) was subsequently added into each well to reach a final concentration of 25 μM (Day 0). Thereafter, medium changes were performed every two days with fresh screening medium supplemented with 25 μM 5-aza-2′-deoxycytidine. From the second time of medium change (Day 4), the screening medium was further supplemented with 10 ng/mL 17β-estradiol. Expression of EGFP in the SC6 cells was observed using an inverted fluorescence microscope prior to making the medium change, and photographs were recorded using a digital camera connected to the inverted fluorescence microscope.
# Trip10 promoter [2] = experiment: Effect of 17β-estradiol upon the Trip10 promoter against DNA methylation (EGFP in SC6 cells); conditions: 10 ng/mL 17β-estradiol before; for EGFP intensity compared to 0 hr: during and after transfection with me_Trip10 DNA
# Description: The obtained photographs were analyzed via an image analyzing software Scion Image. Briefly, the photographs were divided into several regions by the Scion Image software, in which the EGFP signal in a region visually observed as a black region was defined as 0, and the EGFP signal in a region that was visually observed to have the strongest fluorescence was defined as 255. Thereafter, the EGFP intensity was obtained by summing up the EGFP signals in all the regions, followed by dividing by the total area of said regions. Finally, the EGFP intensity at 0 hr was defined as 100%, and the EFGP intensity percentages of the EGFP intensities at other time points relative to that at 0 hr were calculated.
# First, a proper amount of 17β-estradiol was dissolved in alcohol to form a stock solution having a concentration of 10 mg/mL. The SC6 cells as obtained in the above Example 3 were plated into each well of 6-well plates (1×10^5 cells/2 mL screening medium/well), followed by cultivation overnight in an incubator (37° C., […]/5% CO2) to permit cell attachment. […] After cultivation at 37° C. for 24 hours, the SC6 cells were transfected with 0.4 μg of single-stranded me_Trip10 DNA according to the transfection treatment as described in the section, entitled “2. Transfection of SC6 cells with me_Trip10 DNA” of the above Example 4, except that the growth medium was supplemented with 10 ng/mL 17β-estradiol and was added into each well until a final volume of 1 mL was reached.
# The first time at which the liquid in each well was added to reach 1 mL was defined as Hour 0. Expression of EGFP in the SC6 cells was observed using an inverted fluorescence microscope at 0 hr, 24 hrs, 72 hrs and 120 hrs, respectively, and photographs were recorded using a digital camera connected to the inverted fluorescence microscope.
Structure (SMILES),"EGFP intensity compared to Day 2 (100%) (Trip10 promoter [1]; Day 4, 25 μM 5-aza-2′-deoxycytidine alone)",reactivation of the Trip10 promoter / reversal of its methylation (Trip10 promoter [1]),cytotoxicity (SC6 cells),methylation of Trip10 promoter induced by me_Trip10 DNA (Trip10 promoter [2]; during and after transfection),EGFP intensity compared to 0 hr (Trip10 promoter [2]; 72 hrs),"EGFP intensity compared to 0 hr (Trip10 promoter [2]; other time points (24 hrs, 120 hrs))"
Nc1ncn([C@H]2C[C@H](O)[C@@H](CO)O2)c(=O)n1 [5-aza-2′-deoxycytidine],over 100%,insufficient to reactivate the Trip10 promoter,no cytotoxicity,–,–,–
C[C@]12CC[C@@H]3c4ccc(O)cc4CC[C@H]3[C@@H]1CC[C@@H]2O [17β-estradiol],–,–,–,could be prevented from methylation,about 150%,around 100%
